Data as given in publication PMC9459403, “New inhibitors of cathepsin V impair tumor cell proliferation and elastin degradation and increase immune cell cytotoxicity” (Computational and Structural Biotechnology Journal, 2022).

How the values were obtained:
Cathepsin V = target: T1, Cathepsin V (Homo sapiens, UniProt O60911); test: Determination of Ki values and mode of inhibition; assay type: biochemical
T1 construct: made in house; host or cells: Pichia pastoris
Experimental: (§1) Human recombinant cathepsin V was expressed in Pichia Pastoris, and human recombinant cathepsin L was expressed in Escherichia coli, as reported, [51]. To determine the activities of cathepsins V and L, 100 mM acetate buffer (pH 5.5), containing 0.1 % PEG 8000 (Sigma-Aldrich, St. Louis, MO, USA), 5 mM cysteine, and 1.5 mM EDTA was used. Prior to the assay, the enzyme was activated in the assay buffer for 5 min at 37 °C.
(§2) Inhibition constants were calculated from reaction velocities measured at three substrate concentrations (0.5, 1, and 4 μM) in the presence of inhibitors at seven concentrations (0, 20, 40, 60, 80, 100, and 200 µM). The reaction was initiated by adding 90 μL of enzyme at final concentrations of 2.5 ng/mL and 0.02 nM for cathepsins V and L, respectively, to the wells of a black microtiter plate containing 5 μL of substrate and 5 μL of inhibitor. To evaluate cathepsin V and L activity, the substrate Z-Phe-Arg-AMC was used. The formation of the fluorescent degradation products was monitored as described above. All assay mixtures contained 5 % (v/v) DMSO. All measurements were performed in duplicates and repeated at least twice. The SigmaPlot® 12, Enzyme Kinetics Module™ 1.3 was used to calculate Ki values.

[1] = target: T2, human recombinant cathepsin L (Homo sapiens, UniProt P07711); test: Determination of Ki values and mode of inhibition; assay type: biochemical; conditions: mean ± SD (n = 2)
T2 construct: made in house; host or cells: Escherichia coli
Experimental: as §1, §2

T2 sequence (P07711 114-333): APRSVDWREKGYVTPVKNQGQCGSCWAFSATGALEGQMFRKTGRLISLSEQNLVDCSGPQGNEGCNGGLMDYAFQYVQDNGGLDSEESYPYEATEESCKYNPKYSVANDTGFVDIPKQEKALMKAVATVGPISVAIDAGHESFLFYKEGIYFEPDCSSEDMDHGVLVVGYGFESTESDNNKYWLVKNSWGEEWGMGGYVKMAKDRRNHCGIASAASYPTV
T1 sequence (O60911 114-334): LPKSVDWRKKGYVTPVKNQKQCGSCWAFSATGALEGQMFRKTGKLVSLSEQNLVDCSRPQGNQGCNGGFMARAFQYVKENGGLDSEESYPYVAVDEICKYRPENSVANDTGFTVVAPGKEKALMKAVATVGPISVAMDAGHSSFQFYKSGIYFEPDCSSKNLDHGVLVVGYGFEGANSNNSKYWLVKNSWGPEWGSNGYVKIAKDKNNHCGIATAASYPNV

Structure (SMILES): O=C(NCc1cccc2ccccc12)NCC1CCN(C(=O)Oc2ccccc2)CC1 [Compound 7, Phenyl 4-((3-(naphthalen-1-ylmethyl)ureido)methyl)piperidine-1-carboxylate]
- mode of inhibition of cathepsin V (Cathepsin V): competitive
- Ki (Cathepsin V; mean ± SD (n = 2)): 88.7 ± 10.2 µM
- Cathepsin L Ki (µM) [1]: no inhibition and did not inhibit cathepsin L and n.i^f and n.i
- Cathepsin L Ki′ (µM) [1]: n.i^f
